Experimental data: PMC9919699, “A Comprehensive Approach to Derivatization: Elemental Composition, Biochemical, and In Silico Studies of Metformin Derivatives Containing Copper and Zinc Complexes” (Molecules, 2023)
pIC50: −log10 of the molar value. Read-outs that look alike come from different tables or passages of the source.

Experiments:
α-glucosidase = α-glucosidase enzyme inhibition assay (starch substrate, anthrone reagent, 640 nm); assay type: biochemical; conditions: for pIC50: read-out: IC50
Description: The α-glucosidase-inhibitory activity of all derivatives of metformin was tested using the method previously described. Three test tubes were marked as test (T), blank (B), and control (C). Then, 200 µL of substrate (starch) and enzyme (α-glucosidase) was added to test tubes T and C. The contents were mixed well, and then the test tubes were incubated at 37 °C for 30 min. After incubation, trichloroacetic acid was added to all test tubes, which were then centrifuged for 10 min. Free glucose was available after the reaction with anthrone reagent (1.5 mL). The contents in the test tubes were boiled for 15 min, and the absorbance was read at a wavelength at 640 nm. The percentage inhibition was calculated using the following formula:Percentage inhibition = OD of control − OD of test tube/OD of control × 100.

α-amylase = α-amylase enzyme inhibition assay (starch, dinitro-salicylic acid, 540 nm); assay type: biochemical; conditions: for pIC50: read-out: IC50
Description: All derivatives of metformin were analyzed for serum amylase inhibitory activity using the Yukihoko Hara method. Three test tubes were labeled as blank (B), test (T), and control (C). Then, 2.5 mL of phosphate buffer (pH 6.8) was added to each test tube. Next, 1 mL of starch and 1 mL of 2 N sodium chloride solution were added to each test tube. The test tubes were incubated at 37 °C for 10 min. After incubation, 0.5 mL of derivatives was added to test tube T, followed by 0.2 mL of enzyme (α-amylase). All contents were mixed well, and then the tube was incubated at 37 °C for 10 min. In the control test tube, normal saline (2 N), starch solution (1 mL), and enzyme solution (0.2 mL) were added before incubating at 37 °C for 10 min. In the blank test tube, only 5.7 mL of distilled water was added. Dinitro-salicylic acid (0.2 mL) was added to all test tubes. The contents were mixed well, and the test tubes were kept in a boiling water bath for 15 min. The intensity of reddish orange was read at 540 nm. The percentage inhibitory action of serum amylase was calculated using the following formula:Percentage inhibition = OD of control − OD of test tube/OD of control × 100.

[1] = 250 µg/mL, Table 4 (Met series)
[2] = 500 µg/mL, Table 4 (Met series)
[3] = 1000 µg/mL, Table 4 (Met series)
[4] = 250 µg/mL, Table 7 (Met series)
[5] = 500 µg/mL, Table 7 (Met series)
[6] = 1000 µg/mL, Table 7 (Met series)
[7] = 250 µg/mL, Table 6 (MZn series)
[8] = 500 µg/mL, Table 6 (MZn series)
[9] = 1000 µg/mL, Table 6 (MZn series)
[10] = 250 µg/mL, Table 9 (MZn series)
[11] = 500 µg/mL, Table 9 (MZn series)
[12] = 1000 µg/mL, Table 9 (MZn series)

CN(C)C(=N)NC(=N)N=C(c1ccccc1)C(O)c1ccccc1 (stereo not shown) [Met9, N′-[(1Z)-2-hydroxy-1,2-diphenylethylidene]-N,N-dimethyltriimidodicarbonic diamide]
% Inhibition (α-glucosidase; [1]): 10.79 ± 0.10% | % Inhibition (α-glucosidase; [2]): 29.86 ± 0.10% | % Inhibition (α-glucosidase; [3]): 39.09 ± 0.05% | % Inhibition (α-amylase; [4]): 5.41 ± 0.20% | % Inhibition (α-amylase; [5]): 8.61 ± 0.25% | % Inhibition (α-amylase; [6]): 19.71 ± 0.46% | pIC50 (α-amylase; Table 7 (Met series)): 3.10

CC(C)=NC(=N)NC(=N)N(C)C [Met5, N,N-dimethyl-N′-(propan-2-ylidene)triimidodicarbonic diamide]
% Inhibition (α-glucosidase; [1]): 22.85 ± 0.15% | % Inhibition (α-glucosidase; [2]): 39.43 ± 0.19% | % Inhibition (α-glucosidase; [3]): 53.44 ± 0.15% | pIC50 (α-glucosidase; Table 4 (Met series)): 2.70 | % Inhibition (α-amylase; [4]): 15.61 ± 0.20% | % Inhibition (α-amylase; [5]): 39.48 ± 0.32% | % Inhibition (α-amylase; [6]): 63.47 ± 0.23% | pIC50 (α-amylase; Table 7 (Met series)): 3.13

CN(C)C(=N)NC(=N)N=CC=Cc1ccccc1.CN(C)C(=N)NC(=N)N=CC=Cc1ccccc1.O.O.O.O.O.O=S(=O)([O-])[O-].[Zn+2] [MZn3]
% Inhibition (α-glucosidase; [7]): 50.22 ± 0.15% | % Inhibition (α-glucosidase; [8]): 58.18 ± 0.21% | % Inhibition (α-glucosidase; [9]): 68.63 ± 0.20% | pIC50 (α-glucosidase; Table 6 (MZn series)): 3.27 | % Inhibition (α-amylase; [10]): 13.59 ± 0.34% | % Inhibition (α-amylase; [11]): 41.55 ± 0.34% | % Inhibition (α-amylase; [12]): 78.57 ± 0.28% | pIC50 (α-amylase; Table 9 (MZn series)): 3.11

CN(C)C(=N)NC(=N)N=C(c1ccccc1)c1ccccc1 [Met7, N′-(diphenylmethylidene)-N,N-dimethyltriimidodicarbonic diamide]
% Inhibition (α-glucosidase; [1]): 27.42 ± 0.32% | % Inhibition (α-glucosidase; [2]): 41.84 ± 0.15% | % Inhibition (α-glucosidase; [3]): 55.77 ± 0.01% | pIC50 (α-glucosidase; Table 4 (Met series)): 3.05 | % Inhibition (α-amylase; [4]): 24.25 ± 0.20% | % Inhibition (α-amylase; [5]): 34.45 ± 0.26% | % Inhibition (α-amylase; [6]): 48.33 ± 0.51% | pIC50 (α-amylase; Table 7 (Met series)): 2.85

CN(C)C(=N)N=C(N)N [Met, N,N-dimethyltriimidodicarbonic diamide, reference compound]
% Inhibition (α-glucosidase; [1]): 41.73 ± 0.10% | % Inhibition (α-glucosidase; [2]): 52.83 ± 0.11% | % Inhibition (α-glucosidase; [3]): 81.30 ± 0.10% | pIC50 (α-glucosidase; Table 4 (Met series)): 2.32 | % Inhibition (α-amylase; [4]): 55.27 ± 0.20% | % Inhibition (α-amylase; [5]): 63.18 ± 0.20% | % Inhibition (α-amylase; [6]): 85.25 ± 0.32% | pIC50 (α-amylase; Table 7 (Met series)): 2.03

CN(C)C(=N)NC(=N)N=Cc1ccccc1.CN(C)C(=N)NC(=N)N=Cc1ccccc1.O.O.O.O.O.O=S(=O)([O-])[O-].[Zn+2] [MZn1]
% Inhibition (α-glucosidase; [7]): 54.74 ± 0.15% | % Inhibition (α-glucosidase; [8]): 62.48 ± 0.19% | % Inhibition (α-glucosidase; [9]): 77.57 ± 0.20% | pIC50 (α-glucosidase; Table 6 (MZn series)): 3.15 | % Inhibition (α-amylase; [10]): 31.46 ± 0.34% | % Inhibition (α-amylase; [11]): 55.54 ± 0.34% | % Inhibition (α-amylase; [12]): 82.60 ± 0.40% | pIC50 (α-amylase; Table 9 (MZn series)): 3.12

CC(C)=NC(=N)NC(=N)N(C)C.CC(C)=NC(=N)NC(=N)N(C)C.O.O.O.O.O.O=S(=O)([O-])[O-].[Zn+2] [MZn5]
% Inhibition (α-glucosidase; [7]): 32.86 ± 0.15% | % Inhibition (α-glucosidase; [8]): 38.87 ± 0.10% | % Inhibition (α-glucosidase; [9]): 49.46 ± 0.20% | % Inhibition (α-amylase; [10]): 15.44 ± 0.28% | % Inhibition (α-amylase; [11]): 37.60 ± 0.28% | % Inhibition (α-amylase; [12]): 58.35 ± 0.17% | pIC50 (α-amylase; Table 9 (MZn series)): 3.25

C=NC(=N)NC(=N)N(C)C [Met4, N,N-dimethyl-N′-methylidenetriimidodicarbonic diamide]
% Inhibition (α-glucosidase; [1]): 17.49 ± 0.29% | % Inhibition (α-glucosidase; [2]): 25.77 ± 0.35% | % Inhibition (α-glucosidase; [3]): 43.72 ± 0.26% | % Inhibition (α-amylase; [4]): 15.48 ± 0.15% | % Inhibition (α-amylase; [5]): 37.65 ± 0.19% | % Inhibition (α-amylase; [6]): 55.48 ± 0.23% | pIC50 (α-amylase; Table 7 (Met series)): 3.15

C/C(=N\C(=N)NC(=N)N(C)C)c1ccccc1 [Met6, N,N-dimethyl-N′-[(1E)-1-phenylethylidene]triimidodicarbonic diamide]
% Inhibition (α-glucosidase; [1]): 16.41 ± 0.19% | % Inhibition (α-glucosidase; [2]): 28.86 ± 0.15% | % Inhibition (α-glucosidase; [3]): 51.47 ± 0.26% | pIC50 (α-glucosidase; Table 4 (Met series)): 2.89 | % Inhibition (α-amylase; [4]): 18.48 ± 0.26% | % Inhibition (α-amylase; [5]): 33.35 ± 0.20% | % Inhibition (α-amylase; [6]): 41.34 ± 0.17% | pIC50 (α-amylase; Table 7 (Met series)): 2.77

CN(C)C(=N)NC(=N)N=C(c1ccccc1)C(O)c1ccccc1.CN(C)C(=N)NC(=N)N=C(c1ccccc1)C(O)c1ccccc1.O.O.O.O.O.O=S(=O)([O-])[O-].[Zn+2] (stereo not shown) [MZn9]
% Inhibition (α-glucosidase; [7]): 28.64 ± 0.25% | % Inhibition (α-glucosidase; [8]): 37.51 ± 0.25% | % Inhibition (α-glucosidase; [9]): 45.37 ± 0.20% | % Inhibition (α-amylase; [10]): 15.64 ± 0.28% | % Inhibition (α-amylase; [11]): 38.64 ± 0.40% | % Inhibition (α-amylase; [12]): 59.70 ± 0.46% | pIC50 (α-amylase; Table 9 (MZn series)): 3.15
